From PubChem BioAssay (NCI)
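Test compounds were applied to cells in 96-well plates for 48 hours at 5 doses. The concentration for full growth arrest is given as TGI.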

How the values were obtained:
Test in all cases: DTP human tumour cell line panel, 48 h
M14 melanoma = tested on: M14 melanoma
A549 NSCLC = tested on: A549 NSCLC
OVCAR-3 ovarian = tested on: OVCAR-3 ovarian
HL-60(TB) leukemia = tested on: HL-60(TB) leukemia
SK-OV-3 ovarian = tested on: SK-OV-3 ovarian
MCF7 breast = tested on: MCF7 breast
HOP-62 NSCLC = tested on: HOP-62 NSCLC
PC-3 prostate = tested on: PC-3 prostate
MDA-MB-231 breast = tested on: MDA-MB-231 breast
MOLT-4 leukemia = tested on: MOLT-4 leukemia
ACHN renal = tested on: ACHN renal
BT-549 breast = tested on: BT-549 breast
UO-31 renal = tested on: UO-31 renal
HT29 colon = tested on: HT29 colon
NCI-H226 lung = tested on: NCI-H226 lung
TK-10 renal = tested on: TK-10 renal
SK-MEL-28 melanoma = tested on: SK-MEL-28 melanoma
OVCAR-8 ovarian = tested on: OVCAR-8 ovarian
MALME-3M melanoma = tested on: MALME-3M melanoma
MDA-N = tested on: MDA-N
OVCAR-5 ovarian = tested on: OVCAR-5 ovarian
HCC-2998 colon = tested on: HCC-2998 colon
HS 578T breast = tested on: HS 578T breast
SF-539 CNS = tested on: SF-539 CNS
KM12 colon = tested on: KM12 colon
HCT-116 colon = tested on: HCT-116 colon
MDA-MB-435 = tested on: MDA-MB-435
NCI/ADR-RES ovarian = tested on: NCI/ADR-RES ovarian
SK-MEL-5 melanoma = tested on: SK-MEL-5 melanoma
SW-620 colon = tested on: SW-620 colon
DU-145 prostate = tested on: DU-145 prostate
CCRF-CEM leukemia = tested on: CCRF-CEM leukemia
A498 renal = tested on: A498 renal
SN12C renal = tested on: SN12C renal
RPMI-8226 leukemia = tested on: RPMI-8226 leukemia
K-562 leukemia = tested on: K-562 leukemia
EKVX NSCLC = tested on: EKVX NSCLC
UACC-62 melanoma = tested on: UACC-62 melanoma
LOX IMVI melanoma = tested on: LOX IMVI melanoma
IGROV1 ovarian = tested on: IGROV1 ovarian
NCI-H23 lung = tested on: NCI-H23 lung
SNB-19 CNS = tested on: SNB-19 CNS
COLO 205 colon = tested on: COLO 205 colon
NCI-H522 lung = tested on: NCI-H522 lung
SF-268 CNS = tested on: SF-268 CNS
HCT-15 colon = tested on: HCT-15 colon
UACC-257 melanoma = tested on: UACC-257 melanoma
SF-295 CNS = tested on: SF-295 CNS
U251 CNS = tested on: U251 CNS
786-0 renal = tested on: 786-0 renal
OVCAR-4 ovarian = tested on: OVCAR-4 ovarian
CAKI-1 renal = tested on: CAKI-1 renal
SK-MEL-2 melanoma = tested on: SK-MEL-2 melanoma
T-47D breast = tested on: T-47D breast
NCI-H460 lung = tested on: NCI-H460 lung
SNB-75 CNS = tested on: SNB-75 CNS
HOP-92 NSCLC = tested on: HOP-92 NSCLC
SR leukemia = tested on: SR leukemia

CC(C)=CCC/C(C)=C/CO
TGI (M14 melanoma): > 100 µM
TGI (A549 NSCLC): > 100 µM
TGI (OVCAR-3 ovarian): > 100 µM
TGI (HL-60(TB) leukemia): > 100 µM
TGI (SK-OV-3 ovarian): > 100 µM
TGI (MCF7 breast): > 100 µM
TGI (HOP-62 NSCLC): > 100 µM
TGI (PC-3 prostate): > 100 µM
TGI (MDA-MB-231 breast): > 100 µM
TGI (MOLT-4 leukemia): > 100 µM
TGI (ACHN renal): > 100 µM
TGI (BT-549 breast): > 100 µM
TGI (UO-31 renal): > 100 µM
TGI (HT29 colon): > 100 µM
TGI (NCI-H226 lung): > 100 µM
TGI (TK-10 renal): > 100 µM
TGI (SK-MEL-28 melanoma): > 100 µM
TGI (OVCAR-8 ovarian): > 100 µM
TGI (MALME-3M melanoma): > 100 µM
TGI (MDA-N): > 100 µM
TGI (OVCAR-5 ovarian): > 100 µM
TGI (HCC-2998 colon): > 100 µM
TGI (HS 578T breast): > 100 µM
TGI (SF-539 CNS): > 100 µM
TGI (KM12 colon): > 100 µM
TGI (HCT-116 colon): > 100 µM
TGI (MDA-MB-435): > 100 µM
TGI (NCI/ADR-RES ovarian): > 100 µM
TGI (SK-MEL-5 melanoma): > 100 µM
TGI (SW-620 colon): > 100 µM
TGI (DU-145 prostate): > 100 µM
TGI (CCRF-CEM leukemia): > 100 µM
TGI (A498 renal): > 100 µM
TGI (SN12C renal): > 100 µM
TGI (RPMI-8226 leukemia): > 100 µM
TGI (K-562 leukemia): > 100 µM
TGI (EKVX NSCLC): > 100 µM
TGI (UACC-62 melanoma): > 100 µM
TGI (LOX IMVI melanoma): > 100 µM
TGI (IGROV1 ovarian): > 100 µM
TGI (NCI-H23 lung): > 100 µM
TGI (SNB-19 CNS): > 100 µM
TGI (COLO 205 colon): > 100 µM
TGI (NCI-H522 lung): > 100 µM
TGI (SF-268 CNS): > 100 µM
TGI (HCT-15 colon): > 100 µM
TGI (UACC-257 melanoma): > 100 µM
TGI (SF-295 CNS): > 100 µM
TGI (U251 CNS): > 100 µM
TGI (786-0 renal): > 100 µM
TGI (OVCAR-4 ovarian): > 100 µM
TGI (CAKI-1 renal): > 100 µM
TGI (SK-MEL-2 melanoma): > 100 µM
TGI (T-47D breast): > 100 µM
TGI (NCI-H460 lung): > 100 µM

c1ccc2c(c1)SC1=C(SC(=C3SC4=C(S3)Sc3ccccc3S4)S1)S2
TGI (SNB-75 CNS): > 100 µM
TGI (M14 melanoma): > 100 µM
TGI (A549 NSCLC): > 100 µM
TGI (OVCAR-3 ovarian): > 100 µM
TGI (HL-60(TB) leukemia): > 100 µM
TGI (MCF7 breast): > 100 µM
TGI (HOP-62 NSCLC): > 100 µM
TGI (PC-3 prostate): > 100 µM
TGI (MDA-MB-231 breast): > 100 µM
TGI (MOLT-4 leukemia): > 100 µM
TGI (ACHN renal): > 100 µM
TGI (BT-549 breast): > 100 µM
TGI (UO-31 renal): > 100 µM
TGI (HT29 colon): > 100 µM
TGI (NCI-H226 lung): > 100 µM
TGI (TK-10 renal): > 100 µM
TGI (SK-MEL-28 melanoma): > 100 µM
TGI (OVCAR-8 ovarian): > 100 µM
TGI (MALME-3M melanoma): > 100 µM
TGI (MDA-N): > 100 µM
TGI (OVCAR-5 ovarian): > 100 µM
TGI (HCC-2998 colon): > 100 µM
TGI (HS 578T breast): > 100 µM
TGI (SF-539 CNS): > 100 µM
TGI (KM12 colon): > 100 µM
TGI (HCT-116 colon): > 100 µM
TGI (MDA-MB-435): > 100 µM
TGI (NCI/ADR-RES ovarian): > 100 µM
TGI (SK-MEL-5 melanoma): > 100 µM
TGI (SW-620 colon): > 100 µM
TGI (DU-145 prostate): > 100 µM
TGI (CCRF-CEM leukemia): > 100 µM
TGI (SN12C renal): > 100 µM
TGI (RPMI-8226 leukemia): > 100 µM
TGI (EKVX NSCLC): > 100 µM
TGI (UACC-62 melanoma): > 100 µM
TGI (LOX IMVI melanoma): > 100 µM
TGI (HOP-92 NSCLC): > 100 µM
TGI (IGROV1 ovarian): > 100 µM
TGI (NCI-H23 lung): > 100 µM
TGI (SNB-19 CNS): > 100 µM
TGI (COLO 205 colon): > 100 µM
TGI (NCI-H522 lung): > 100 µM
TGI (SF-268 CNS): > 100 µM
TGI (HCT-15 colon): > 100 µM
TGI (UACC-257 melanoma): > 100 µM
TGI (SF-295 CNS): > 100 µM
TGI (U251 CNS): > 100 µM
TGI (786-0 renal): > 100 µM
TGI (OVCAR-4 ovarian): > 100 µM
TGI (CAKI-1 renal): > 100 µM
TGI (SK-MEL-2 melanoma): > 100 µM
TGI (T-47D breast): > 100 µM
TGI (NCI-H460 lung): > 100 µM

COc1cc(OC)c2c(c1-c1ccc(C)cc1)CC(C)N(Cc1ccccc1)[C@H]2C (stereo not given in full)
TGI (SNB-75 CNS): > 100 µM
TGI (M14 melanoma): > 100 µM
TGI (A549 NSCLC): > 100 µM
TGI (HL-60(TB) leukemia): 43.4 µM
TGI (SK-OV-3 ovarian): > 100 µM
TGI (MCF7 breast): > 100 µM
TGI (HOP-62 NSCLC): > 100 µM
TGI (PC-3 prostate): > 100 µM
TGI (MDA-MB-231 breast): > 100 µM
TGI (MOLT-4 leukemia): > 100 µM
TGI (ACHN renal): > 100 µM
TGI (BT-549 breast): > 100 µM
TGI (UO-31 renal): > 100 µM
TGI (HT29 colon): 69.7 µM
TGI (NCI-H226 lung): > 100 µM
TGI (TK-10 renal): > 100 µM
TGI (SK-MEL-28 melanoma): > 100 µM
TGI (OVCAR-8 ovarian): > 100 µM
TGI (SR leukemia): > 100 µM
TGI (MALME-3M melanoma): 53.2 µM
TGI (MDA-N): > 100 µM
TGI (HCC-2998 colon): > 100 µM
TGI (HS 578T breast): 67.3 µM
TGI (SF-539 CNS): > 100 µM
TGI (KM12 colon): > 100 µM
TGI (HCT-116 colon): > 100 µM
TGI (MDA-MB-435): > 100 µM
TGI (SK-MEL-5 melanoma): 51.5 µM
TGI (SW-620 colon): > 100 µM
TGI (DU-145 prostate): > 100 µM
TGI (CCRF-CEM leukemia): > 100 µM
TGI (A498 renal): > 100 µM
TGI (SN12C renal): > 100 µM
TGI (RPMI-8226 leukemia): 52.3 µM
TGI (K-562 leukemia): > 100 µM
TGI (EKVX NSCLC): > 100 µM
TGI (UACC-62 melanoma): > 100 µM
TGI (LOX IMVI melanoma): > 100 µM
TGI (IGROV1 ovarian): > 100 µM
TGI (NCI-H23 lung): > 100 µM
TGI (SNB-19 CNS): > 100 µM
TGI (COLO 205 colon): > 100 µM
TGI (NCI-H522 lung): 72.8 µM
TGI (SF-268 CNS): > 100 µM
TGI (HCT-15 colon): > 100 µM
TGI (UACC-257 melanoma): 68.5 µM
TGI (SF-295 CNS): > 100 µM
TGI (786-0 renal): > 100 µM
TGI (CAKI-1 renal): > 100 µM
TGI (T-47D breast): > 100 µM
TGI (NCI-H460 lung): > 100 µM
